{
  "source": "patent US20230101687A1",
  "about": "“SYNTHETIC TISSUE BARRIERS AND USES THEREOF” (Massachusetts Institute of Technology, priority 2019, published 2023)",
  "key": {"[1]": {"target": "endogenous catalase (CAT) (Sus scrofa, UniProt O62839)", "sequence (O62839 2-527 limits assumed)": "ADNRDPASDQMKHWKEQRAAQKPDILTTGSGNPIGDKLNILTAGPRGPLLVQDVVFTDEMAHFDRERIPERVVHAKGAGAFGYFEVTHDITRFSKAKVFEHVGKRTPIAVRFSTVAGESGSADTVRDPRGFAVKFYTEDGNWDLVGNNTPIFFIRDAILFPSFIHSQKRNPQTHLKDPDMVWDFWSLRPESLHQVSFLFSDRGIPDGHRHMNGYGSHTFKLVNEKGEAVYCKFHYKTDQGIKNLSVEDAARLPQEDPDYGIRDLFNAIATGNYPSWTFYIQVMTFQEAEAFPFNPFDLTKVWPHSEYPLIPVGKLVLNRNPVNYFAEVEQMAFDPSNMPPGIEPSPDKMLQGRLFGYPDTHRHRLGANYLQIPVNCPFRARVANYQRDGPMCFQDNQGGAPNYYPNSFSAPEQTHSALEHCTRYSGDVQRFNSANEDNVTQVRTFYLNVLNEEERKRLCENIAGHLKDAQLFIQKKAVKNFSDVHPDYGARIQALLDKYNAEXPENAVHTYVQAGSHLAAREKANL", "settings": "of 35 porcine tissue sites"}, "CAT": {"target": "CAT (Homo sapiens, UniProt P04040)", "sequence (P04040 2-527 limits assumed)": "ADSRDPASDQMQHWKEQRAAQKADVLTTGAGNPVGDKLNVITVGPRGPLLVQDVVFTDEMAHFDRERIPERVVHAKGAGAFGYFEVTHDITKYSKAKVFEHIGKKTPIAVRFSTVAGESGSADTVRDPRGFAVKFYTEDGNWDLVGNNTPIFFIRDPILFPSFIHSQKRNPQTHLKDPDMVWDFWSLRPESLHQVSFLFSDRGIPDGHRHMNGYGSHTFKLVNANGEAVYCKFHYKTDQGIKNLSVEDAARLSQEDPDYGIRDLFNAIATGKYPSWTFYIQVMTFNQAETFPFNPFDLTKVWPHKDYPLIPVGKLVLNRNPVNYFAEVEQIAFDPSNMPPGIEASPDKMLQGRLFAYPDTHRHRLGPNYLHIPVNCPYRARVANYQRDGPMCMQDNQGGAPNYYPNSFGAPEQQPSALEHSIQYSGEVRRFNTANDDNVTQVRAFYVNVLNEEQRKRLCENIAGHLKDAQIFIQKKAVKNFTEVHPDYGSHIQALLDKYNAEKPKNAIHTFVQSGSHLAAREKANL", "protocol": "To confirm the reliability of the porcine-based TPA-positive tissue map described above for potential human trials, fresh resected tissue specimens from humans were tested for compatibility with TPA technology. Similar to the porcine TPA-map study, human tissue specimens were incubated with the TPA solution containing M1, and subsequently CAT-accelerated chromogenic M1 assembly was characterized."}},
  "data": [
    {"smiles": "NCCc1ccc(O)c(O)c1", "note": "[Monomer M1, dopamine]", "values": [
      {"measurement": "tissue sites with no obvious PDA signal increase", "setting": "[1]", "result": 9, "unit": "tissue sites"},
      {"measurement": "tissue sites with significantly increased PDA levels (P<0.05)", "setting": "[1]; dopamine plus hydrogen peroxide", "result": 26, "unit": "tissue sites"},
      {"measurement": "time to 95% completion of M1 assembly formation", "setting": "CAT; all human tissue types tested", "result": "4 to 23", "unit": "min"},
      {"measurement": "adhesion of assemblies on human tissues", "setting": "CAT; cartilage, buccal, tongue, blood", "result": "stably adhered M1 assemblies were observed"}
    ]}
  ]
}
